Laboratory results reported in article PMC7615656 (European journal of pharmacology, 2010).

Columns and labels:
Test in all cases: Two-electrode voltage clamp of GABA-induced chloride currents in Xenopus oocytes
Format in all cases: cell-based
[1] = target: recombinant rat α1β3γ2 receptors (Rattus norvegicus, UniProt P18508+P62813); details: α1β3γ2, ns = not significant
[2] = target: recombinant rat α5β3γ2F77I receptors (Rattus norvegicus, UniProt P18508+P19969, F115I); details: α5β3γ2F77I; for efficacy (% GABA EC3): ns = not significant
[3] = target: recombinant rat α2β3γ2 receptors (Rattus norvegicus, UniProt P18508+P23576); details: α2β3γ2, ns = not significant
[4] = target: recombinant rat α5β3γ2 receptors (Rattus norvegicus, UniProt P18508+P19969); details: α5β3γ2, ns = not significant
[5] = target: recombinant rat α4β3γ2 receptors (Rattus norvegicus, UniProt P18508+P28471); details: α4β3γ2; for efficacy (% GABA EC3): ns = not significant
recombinant rat α4β3γ2 receptors, sequence (P28471 36-552): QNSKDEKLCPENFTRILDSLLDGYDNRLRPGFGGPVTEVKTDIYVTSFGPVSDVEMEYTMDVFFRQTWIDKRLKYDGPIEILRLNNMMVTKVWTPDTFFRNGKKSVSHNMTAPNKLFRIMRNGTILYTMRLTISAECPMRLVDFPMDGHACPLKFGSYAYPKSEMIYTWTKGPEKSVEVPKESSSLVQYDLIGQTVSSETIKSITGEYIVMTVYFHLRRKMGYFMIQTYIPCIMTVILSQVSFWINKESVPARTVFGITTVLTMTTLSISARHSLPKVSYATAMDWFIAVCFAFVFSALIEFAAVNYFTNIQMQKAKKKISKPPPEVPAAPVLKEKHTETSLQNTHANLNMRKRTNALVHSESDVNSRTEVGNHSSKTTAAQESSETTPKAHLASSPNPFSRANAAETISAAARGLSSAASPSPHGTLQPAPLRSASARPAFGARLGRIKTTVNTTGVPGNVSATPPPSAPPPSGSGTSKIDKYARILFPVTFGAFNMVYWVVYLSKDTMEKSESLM
recombinant rat α4β3γ2 receptors, sequence (P63079 26-473 partner): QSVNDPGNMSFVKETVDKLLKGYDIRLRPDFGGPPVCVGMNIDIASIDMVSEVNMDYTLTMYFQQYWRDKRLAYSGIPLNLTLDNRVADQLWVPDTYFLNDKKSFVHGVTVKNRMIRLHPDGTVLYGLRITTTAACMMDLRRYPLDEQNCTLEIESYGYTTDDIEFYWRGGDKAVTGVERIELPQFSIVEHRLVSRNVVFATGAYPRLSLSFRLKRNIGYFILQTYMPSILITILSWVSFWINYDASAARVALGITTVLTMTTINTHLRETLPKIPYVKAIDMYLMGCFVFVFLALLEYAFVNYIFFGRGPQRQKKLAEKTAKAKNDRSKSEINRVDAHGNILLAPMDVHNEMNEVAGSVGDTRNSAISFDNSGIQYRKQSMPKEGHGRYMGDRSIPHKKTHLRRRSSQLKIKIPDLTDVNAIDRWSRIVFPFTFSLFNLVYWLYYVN
recombinant rat α4β3γ2 receptors, sequence (P18508 39-466): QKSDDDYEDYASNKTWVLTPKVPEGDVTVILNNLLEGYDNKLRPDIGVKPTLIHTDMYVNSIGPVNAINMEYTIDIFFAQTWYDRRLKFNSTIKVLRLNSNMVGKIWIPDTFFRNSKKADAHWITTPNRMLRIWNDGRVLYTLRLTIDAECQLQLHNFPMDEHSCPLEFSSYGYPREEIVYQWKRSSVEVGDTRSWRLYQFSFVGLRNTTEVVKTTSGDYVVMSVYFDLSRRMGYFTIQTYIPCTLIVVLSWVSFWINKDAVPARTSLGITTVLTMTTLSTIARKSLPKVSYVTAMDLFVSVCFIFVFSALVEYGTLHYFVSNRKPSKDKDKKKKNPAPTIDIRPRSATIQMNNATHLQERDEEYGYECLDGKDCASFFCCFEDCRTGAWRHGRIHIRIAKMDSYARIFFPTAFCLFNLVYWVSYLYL

[6] = target: recombinant rat α2β3γ2F77I receptors (Rattus norvegicus, UniProt P18508+P23576, F115I); details: α2β3γ2F77I; for efficacy (% GABA EC3): ns = not significant
[7] = target: recombinant rat α3β3γ2F77I receptors (Rattus norvegicus, UniProt P18508+P20236, F115I); details: α3β3γ2F77I; for efficacy (% GABA EC3): ns = not significant
[8] = target: recombinant rat α6β3γ2 receptors (Rattus norvegicus, UniProt P18508+P30191); details: α6β3γ2; for efficacy (% GABA EC3): ns = not significant
[9] = target: recombinant rat α1β3γ2F77I receptors (Rattus norvegicus, UniProt P18508+P62813, F115I); details: α1β3γ2F77I; for efficacy (% GABA EC3): ns = not significant
recombinant rat α1β3γ2F77I receptors, sequence (P62813 28-455): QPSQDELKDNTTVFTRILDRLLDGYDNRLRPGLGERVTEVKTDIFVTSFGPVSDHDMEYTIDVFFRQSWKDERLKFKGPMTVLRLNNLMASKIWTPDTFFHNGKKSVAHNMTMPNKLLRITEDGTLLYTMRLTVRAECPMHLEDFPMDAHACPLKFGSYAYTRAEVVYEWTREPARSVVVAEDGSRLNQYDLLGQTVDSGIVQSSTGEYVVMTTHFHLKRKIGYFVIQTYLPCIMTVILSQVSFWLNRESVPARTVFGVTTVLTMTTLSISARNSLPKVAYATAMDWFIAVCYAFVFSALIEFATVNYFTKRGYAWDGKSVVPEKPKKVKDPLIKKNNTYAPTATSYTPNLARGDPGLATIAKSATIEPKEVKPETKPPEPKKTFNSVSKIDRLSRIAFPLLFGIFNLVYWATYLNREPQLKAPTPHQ
recombinant rat α1β3γ2F77I receptors, sequence (P63079 26-473 partner): as the sequence (P63079 26-473 partner) above
recombinant rat α1β3γ2F77I receptors, sequence (P18508 39-466 F115I): as the sequence (P18508 39-466) above, with F77I counted along it

[10] = target: recombinant rat α3β3γ2 receptors (Rattus norvegicus, UniProt P18508+P20236); details: α3β3γ2, ns = not significant

recombinant rat α1β3γ2 receptors, sequence (P62813 28-455): as the sequence (P62813 28-455) above
recombinant rat α1β3γ2 receptors, sequence (P63079 26-473 partner): as the sequence (P63079 26-473 partner) above
recombinant rat α1β3γ2 receptors, sequence (P18508 39-466): as the sequence (P18508 39-466) above

Structure (SMILES): CN1C(=O)CN=C(c2ccccc2)c2cc(Cl)ccc21 [Diazepam, 7-chloro-1,3-dihydro-1-methyl-5-phenyl-2H-1,4-benzodiazepin-2-one]
- efficacy (% GABA EC3) ([1]; 100 nM): 239 ± 23 % GABA EC3
- efficacy (% GABA EC3) ([1]; 1 μM): 314 ± 29 % GABA EC3
- efficacy (% GABA EC3) ([1]; 10 μM): 324 ± 22 % GABA EC3
- efficacy (% GABA EC3) ([2]; 100 nM): 135 ± 7 % GABA EC3
- efficacy (% GABA EC3) ([2]; 1 μM): 170 ± 4 % GABA EC3
- efficacy (% GABA EC3) ([2]; 10 μM): 154 ± 2 % GABA EC3
- efficacy for enhancing GABA EC3 in receptors containing the γ2F77I mutation [2]: 154 ± 2%
- efficacy (% GABA EC3) ([3]; 100 nM): 426 ± 22 % GABA EC3
- efficacy (% GABA EC3) ([3]; 1 μM): 536 ± 26 % GABA EC3
- efficacy (% GABA EC3) ([3]; 10 μM): 532 ± 20 % GABA EC3
- efficacy (% GABA EC3) ([4]; 100 nM): 274 ± 16 % GABA EC3
- efficacy (% GABA EC3) ([4]; 1 μM): 342 ± 21 % GABA EC3
- efficacy (% GABA EC3) ([4]; 10 μM): 321 ± 14 % GABA EC3
- efficacy (% GABA EC3) ([5]; 1 μM): ns
- efficacy (% GABA EC3) ([5]; 10 μM): ns
- maximal effect on GABA-induced chloride flux (GABA EC3), % of control current ([5]; control current = 100%): did not stimulate
- efficacy (% GABA EC3) ([6]; 100 nM): 181 ± 1 % GABA EC3
- efficacy (% GABA EC3) ([6]; 1 μM): 265 ± 4 % GABA EC3
- efficacy (% GABA EC3) ([6]; 10 μM): 278 ± 6 % GABA EC3
- efficacy for enhancing GABA EC3 in receptors containing the γ2F77I mutation [6]: 278 ± 6%
- efficacy (% GABA EC3) ([7]; 100 nM): 166 ± 17 % GABA EC3
- efficacy (% GABA EC3) ([7]; 1 μM): 263 ± 39 % GABA EC3
- efficacy (% GABA EC3) ([7]; 10 μM): 272 ± 36 % GABA EC3
- efficacy for enhancing GABA EC3 in receptors containing the γ2F77I mutation [7]: 272 ± 36%
- efficacy (% GABA EC3) ([8]; 1 μM): ns
- efficacy (% GABA EC3) ([8]; 10 μM): ns
- maximal effect on GABA-induced chloride flux (GABA EC3), % of control current ([8]; control current = 100%): did not stimulate
- efficacy (% GABA EC3) ([9]; 100 nM): 162 ± 17 % GABA EC3
- efficacy (% GABA EC3) ([9]; 1 μM): 220 ± 21 % GABA EC3
- efficacy (% GABA EC3) ([9]; 10 μM): 229 ± 26 % GABA EC3
- efficacy for enhancing GABA EC3 in receptors containing the γ2F77I mutation [9]: 229 ± 26%
- efficacy (% GABA EC3) ([10]; 100 nM): 437 ± 32 % GABA EC3
- efficacy (% GABA EC3) ([10]; 1 μM): 752 ± 48 % GABA EC3
- efficacy (% GABA EC3) ([10]; 10 μM): 738 ± 36 % GABA EC3
